Key:
Experiment in all cases: relative viability (nuclei count vs DMSO), 5 days (fraction); higher = more cells survive
[1] = system: A-427
Procedure, shortened: (§1)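 Cells from lung cancer lines were seeded into 1536-well plates and, one day later, dosed by pin tool. Treatments were either a single drug or a fixed dose of an anchor drug with five library-drug doses (not always all listed) in √10 steps. After 5 days, nuclei were stained in a one-step fixation (final 0.05% Triton X-100, 1% formaldehyde, 1 ug/ml Hoechst) and counted on 4× images, and relative viability is the treated-to-vehicle nuclei ratio, as the median of duplicate plates.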

[2] = system: COR-L 105
Procedure, shortened: as §1

[3] = system: ChaGo-K-1
Procedure, shortened: as §1

[4] = system: EKVX
Procedure, shortened: as §1

[5] = system: EMC-BAC-2
Procedure, shortened: as §1

[6] = system: H3255
Procedure, shortened: as §1

[7] = system: HCC-366
Procedure, shortened: as §1

[8] = system: LK-2
Procedure, shortened: as §1

[9] = system: LOU-NH91
Procedure, shortened: as §1

[10] = system: NCI-H1563
Procedure, shortened: as §1

[11] = system: NCI-H1666
Procedure, shortened: as §1

[12] = system: NCI-H1734
Procedure, shortened: as §1

[13] = system: NCI-H1755
Procedure, shortened: as §1

[14] = system: NCI-H1792
Procedure, shortened: as §1

[15] = system: NCI-H1944
Procedure, shortened: as §1

[16] = system: NCI-H1975
Procedure, shortened: as §1

[17] = system: NCI-H2170
Procedure, shortened: as §1

[18] = system: NCI-H23
Procedure, shortened: as §1

[19] = system: NCI-H441
Procedure, shortened: as §1

[20] = system: NCI-H520
Procedure, shortened: as §1

[21] = system: NCI-H596
Procedure, shortened: as §1

[22] = system: PC-3 [JPC-3]
Procedure, shortened: as §1

[23] = system: SK-MES-1
Procedure, shortened: as §1

C[C@@H]1CN(CC(=O)Nc2ccc3c(c2)Cc2cccc(-c4cc(=O)cc(N5CCOCC5)o4)c2S3)C[C@H](C)O1 + C[C@@H](Oc1cc(-c2cnn(C3CCNCC3)c2)cnc1N)c1c(Cl)ccc(F)c1Cl [Crizotinib] (partner 1 µM)
relative viability ([1]; first compound 0.04 µM): 1.04
relative viability ([1]; first compound 0.1265 µM): 0.941
relative viability ([1]; first compound 0.4 µM): 0.827
relative viability ([1]; first compound 4 µM): 0.844
relative viability ([2]; first compound 0.04 µM): 0.766
relative viability ([2]; first compound 0.1265 µM): 0.862
relative viability ([2]; first compound 0.4 µM): 0.881
relative viability ([2]; first compound 4 µM): 0.435
relative viability ([3]; first compound 0.1265 µM): 1.09
relative viability ([3]; first compound 0.4 µM): 1.21
relative viability ([3]; first compound 4 µM): 1.13
relative viability ([4]; first compound 0.04 µM): 0.924
relative viability ([4]; first compound 0.1265 µM): 0.947
relative viability ([4]; first compound 0.4 µM): 1.13
relative viability ([4]; first compound 4 µM): 0.876
relative viability ([5]; first compound 0.04 µM): 0.57
relative viability ([5]; first compound 0.1265 µM): 0.761
relative viability ([5]; first compound 0.4 µM): 0.75
relative viability ([5]; first compound 4 µM): 0.819
relative viability ([6]; first compound 0.04 µM): 0.824
relative viability ([6]; first compound 0.1265 µM): 0.785
relative viability ([6]; first compound 0.4 µM): 0.814
relative viability ([6]; first compound 4 µM): 0.719
relative viability ([7]; first compound 0.04 µM): 0.5
relative viability ([7]; first compound 0.1265 µM): 0.532
relative viability ([7]; first compound 0.4 µM): 0.414
relative viability ([7]; first compound 4 µM): 0.414
relative viability ([8]; first compound 0.1265 µM): 0.198
relative viability ([8]; first compound 0.4 µM): 0.242
relative viability ([8]; first compound 4 µM): 0.191
relative viability ([9]; first compound 0.04 µM): 0.764
relative viability ([9]; first compound 0.1265 µM): 0.752
relative viability ([9]; first compound 0.4 µM): 0.948
relative viability ([9]; first compound 4 µM): 0.72
relative viability ([10]; first compound 0.04 µM): 0.852
relative viability ([10]; first compound 0.1265 µM): 0.849
relative viability ([10]; first compound 0.4 µM): 0.688
relative viability ([10]; first compound 4 µM): 0.747
relative viability ([11]; first compound 0.04 µM): 0.928
relative viability ([11]; first compound 0.1265 µM): 1.05
relative viability ([11]; first compound 0.4 µM): 1.11
relative viability ([11]; first compound 4 µM): 0.661
relative viability ([12]; first compound 0.04 µM): 0.762
relative viability ([12]; first compound 0.1265 µM): 0.651
relative viability ([12]; first compound 0.4 µM): 0.627
relative viability ([12]; first compound 4 µM): 0.663
relative viability ([13]; first compound 0.04 µM): 0.92
relative viability ([13]; first compound 0.1265 µM): 0.86
relative viability ([13]; first compound 0.4 µM): 0.816
relative viability ([13]; first compound 4 µM): 0.792
relative viability ([14]; first compound 0.04 µM): 0.966
relative viability ([14]; first compound 0.1265 µM): 0.921
relative viability ([14]; first compound 0.4 µM): 0.959
relative viability ([14]; first compound 4 µM): 0.932
relative viability ([15]; first compound 0.1265 µM): 1.09
relative viability ([15]; first compound 0.4 µM): 1.22
relative viability ([15]; first compound 4 µM): 1.16
relative viability ([16]; first compound 0.04 µM): 0.947
relative viability ([16]; first compound 0.1265 µM): 0.905
relative viability ([16]; first compound 0.4 µM): 0.937
relative viability ([16]; first compound 4 µM): 0.781
relative viability ([17]; first compound 0.1265 µM): 1.2
relative viability ([17]; first compound 0.4 µM): 1.21
relative viability ([17]; first compound 4 µM): 1.1
relative viability ([18]; first compound 0.04 µM): 0.521
relative viability ([18]; first compound 0.1265 µM): 0.487
relative viability ([18]; first compound 0.4 µM): 0.369
relative viability ([18]; first compound 4 µM): 0.487
relative viability ([19]; first compound 0.04 µM): 0.944
relative viability ([19]; first compound 0.1265 µM): 0.788
relative viability ([19]; first compound 0.4 µM): 0.707
relative viability ([19]; first compound 4 µM): 0.587
relative viability ([20]; first compound 0.04 µM): 0.64
relative viability ([20]; first compound 0.1265 µM): 0.711
relative viability ([20]; first compound 0.4 µM): 0.497
relative viability ([20]; first compound 4 µM): 0.534
relative viability ([21]; first compound 0.04 µM): 0.934
relative viability ([21]; first compound 0.1265 µM): 0.928
relative viability ([21]; first compound 0.4 µM): 0.983
relative viability ([21]; first compound 4 µM): 0.964
relative viability ([22]; first compound 0.04 µM): 0.947
relative viability ([22]; first compound 0.1265 µM): 0.936
relative viability ([22]; first compound 0.4 µM): 0.971
relative viability ([22]; first compound 4 µM): 0.962
relative viability ([23]; first compound 0.04 µM): 1.08
relative viability ([23]; first compound 0.1265 µM): 0.991
relative viability ([23]; first compound 0.4 µM): 0.917
relative viability ([23]; first compound 4 µM): 0.774

From the supplement of paper PMC10307832
